The values below come from patent US20260335320A1, “ANTI-VIRULENCE AGENTS AND METHODS FOR THE TREATMENT OF PATHOGENIC BACTERIUM” (priority 2023, published 2026).

Where two headings read alike, the source gives them in different places.

In series [1] the test system is B. dolosa strain AU0158. The series is described as follows: Invasion of and/or intracellular survival in THP-1-derived macrophages, antibiotic exclusion assay. In kind it is cell-based, B. dolosa strain AU0158 (in human THP-1-derived macrophages).
The subject of series [2] is B. multivorans. In words: Invasion/intracellular survival in THP-1-derived macrophages. In kind it is cell-based. The note with it: 4 h.
For series [3], the system named is B. cenocepacia. The series is described as above. In kind it is cell-based. Particulars: 4 h.
Series [4] deals with B. thailandensis. In words: microbe, parasite or virus in culture. In kind it is cell-based.
Series [5] deals with Mycobacterium abscessus. The series is described as follows: Intracellular invasion/survival in THP-1-derived macrophages. Particulars: 25 μM, 2 h plus 2 h with amikacin. In kind it is cell-based. How it is done: FIG. 9. BFA compounds reduce the virulence of M. abscessus. FIG. 9 provides a graph showing the results after THP-1-derived macrophages were infected with ~5×10^5 CFU/M. abscessus strain ATCC19977 and 25 μM of the indicated BFA or DMSO vehicle control for 2 hours. Cells were washed and treated with the same BFA and 500 μg/mL amikacin (to kill extracellular bacteria) for 2 hours.
To determine whether BFA compounds could inhibit the virulence of Mycobacterium abscessus THP-1-derived macrophages were used.

Series [6] deals with P. aeruginosa strain PA14. In words: P. aeruginosa-induced cytotoxicity of A549 cells (LDH release). Particulars: 25 μM, 5.5 hours. (Release of lactate dehydrogenase indicates damage to the cell membrane.)
The subject of series [7] is Burkholderia FixLJ pathway (Fix-GFP reporter in B. multivorans strain VC7102). The series is described as follows: Fix-GFP reporter activation screen (GFP fluorescence).

`CCCCCCc1cc2cc(-c3nnc(-c4ccc(C)cc4)o3)c(=O)oc2cc1O` [BFA1, 6-HEXYL-7-HYDROXY-3-[5-(4-METHYLPHENYL)-1,3,4-OXADIAZOL-2-YL]-2H-CHROMEN-2-ONE]: the “inhibition of invasion/survival of B. dolosa in macrophages” value in series [1] is “inhibited virulence at a lower concentration and at a greater magnitude than the other BFA compounds”; in series [1] (for BFA 2-8 at highest dose tested), ~ 75%. In series [2] (25 μM, THP-1-derived macrophages), the “inhibition of invasion/survival of B. multivorans” value was “inhibited the invasion/survival of all three additional Burkholderia species”. Further, the minimal effective concentration in series [2] (Burkholderia multivorans, Macrophage, read-out: dose inhibiting invasion/survival of B. multivorans) was 6.25 µM; in series [4] (Burkholderia thailandensis, Macrophage, 2 h, read-out: dose inhibiting invasion/survival of B. thailandensis), 6.25 µM. Besides, the “inhibition of invasion/survival of B. cenocepacia” value in series [3] (25 μM) is given as “able to inhibit the invasion/survival of B. cenocepacia”. Also, the “dose needed to inhibit B. cenocepacia” value in series [3] (dose range, compared with 6.25 μM) is “higher doses were needed to inhibit B. cenocepacia”. For the same molecule, in series [4] (25 μM, 4 h), the “inhibition of invasion/survival of B. thailandensis” value was “able to inhibit the invasion/survival of B. cenocepacia (FIG. 3B) and B. thailandensis”. In addition, the “inhibition of intracellular invasion/survival of M. abscessus” value in series [5] is recorded as “able to inhibit the intracellular invasion/survival within the macrophages”.
Regarding `COCCNC(=O)CCn1c(=O)c2cc(OC)c(OC)cc2n(CC(=O)Nc2ccccc2OC)c1=O` [BFA2, 3-(6,7-Dimethoxy-1-{[(2-Methoxyphenyl)Carbamoyl]Methyl}-2,4-Dioxo-1,2,3,4-Tetrahydroquinazolin-3-Yl)-N-(2-Methoxyethyl)Propanamide], in series [5], the “inhibition of intracellular invasion/survival of M. abscessus” value is “able to inhibit the intracellular invasion/survival within the macrophages”.
With `CCc1ccccc1N1CC(c2nc3ccccc3n2CCCCOc2ccccc2)CC1=O` (centres unmarked) [BFA3, 1-(2-ETHYLPHENYL)-4-[1-(4-PHENOXYBUTYL)-1H-1,3-BENZODIAZOL-2-YL]PYRROLIDIN-2-ONE], the “inhibition of intracellular invasion/survival of M. abscessus” value in series [5] is given as “able to inhibit the intracellular invasion/survival within the macrophages”. Further, the “inhibition of PA14-induced cytotoxicity” value in series [6] was “able to significantly reduce cytotoxicity”.
On to `Cc1ccccc1-n1c(/C=C/c2ccc(N(C)C)cc2)nc2ccccc2c1=O` [BFA6, 2-[(1E)-2-[4-(DIMETHYLAMINO)PHENYL]ETHENYL]-3-(2-METHYLPHENYL)-3,4-DIHYDROQUINAZOLIN-4-ONE], for which the “inhibition of invasion/survival of B. thailandensis” value in series [4] is “able to inhibit the invasion/survival of B. thailandensis”. Moreover, the “inhibition of PA14-induced cytotoxicity” value in series [6] is recorded as “able to significantly reduce cytotoxicity”.
For the molecule `CCCCN(C)CCCNC(=O)Cn1ncc2c3ccccc3n(Cc3cccc(Cl)c3)c2c1=O` [BFA7, N-{3-[Butyl(Methyl)Amino]Propyl}-2-{5-[(3-Chlorophenyl)Methyl]-4-Oxo-3h,4h,5h-Pyridazino[4,5-B]Indol-3-Yl}Acetamide], the “inhibition of intracellular invasion/survival of M. abscessus” value in series [5] is on record as “able to inhibit the intracellular invasion/survival within the macrophages”. In series [6], the “inhibition of PA14-induced cytotoxicity” value is “able to significantly reduce cytotoxicity”.
Turning to `NC(CO)C(=O)NNCc1ccc(O)c(O)c1O` (centres unmarked) [Benserazide, benserazide], the “GFP activity above the mean of the negative control (DMSO)” value in series [7] was “more than 3 standard deviations”.
